Experimental data reported in ChEMBL document CHEMBL3860060, “Discovery and Optimization of 1-Phenoxy-2-aminoindanes as Potent, Selective, and Orally Bioavailable Inhibitors of the Na+/H+ Exchanger Type 3 (NHE3)” (J Med Chem, 2016).
pIC50: −log10 of the molar value. One block for each molecule: values may come before it.

Legend:
[1] = Inhibition of PDE4 (unknown origin); design: species or system Homo sapiens
[2] = Drug metabolism in Landrance pig hepatic microsomes assessed as compound lability by LC-MS/MS method; type: ADME, Sus scrofa, Microsome; conditions: Landrace, liver microsomes, read-out: Drug metabolism
[3] = biological target: T1, Sodium/hydrogen exchanger 2 (Homo sapiens, UniProt Q9UBY0); assay: Inhibition of human NHE2 expressed in LAP1 cell assessed as intracellular pH recovery measured for 2 mins by CECF-AM dye based FLIPR assay
T1 sequence (Q9UBY0 whole entry): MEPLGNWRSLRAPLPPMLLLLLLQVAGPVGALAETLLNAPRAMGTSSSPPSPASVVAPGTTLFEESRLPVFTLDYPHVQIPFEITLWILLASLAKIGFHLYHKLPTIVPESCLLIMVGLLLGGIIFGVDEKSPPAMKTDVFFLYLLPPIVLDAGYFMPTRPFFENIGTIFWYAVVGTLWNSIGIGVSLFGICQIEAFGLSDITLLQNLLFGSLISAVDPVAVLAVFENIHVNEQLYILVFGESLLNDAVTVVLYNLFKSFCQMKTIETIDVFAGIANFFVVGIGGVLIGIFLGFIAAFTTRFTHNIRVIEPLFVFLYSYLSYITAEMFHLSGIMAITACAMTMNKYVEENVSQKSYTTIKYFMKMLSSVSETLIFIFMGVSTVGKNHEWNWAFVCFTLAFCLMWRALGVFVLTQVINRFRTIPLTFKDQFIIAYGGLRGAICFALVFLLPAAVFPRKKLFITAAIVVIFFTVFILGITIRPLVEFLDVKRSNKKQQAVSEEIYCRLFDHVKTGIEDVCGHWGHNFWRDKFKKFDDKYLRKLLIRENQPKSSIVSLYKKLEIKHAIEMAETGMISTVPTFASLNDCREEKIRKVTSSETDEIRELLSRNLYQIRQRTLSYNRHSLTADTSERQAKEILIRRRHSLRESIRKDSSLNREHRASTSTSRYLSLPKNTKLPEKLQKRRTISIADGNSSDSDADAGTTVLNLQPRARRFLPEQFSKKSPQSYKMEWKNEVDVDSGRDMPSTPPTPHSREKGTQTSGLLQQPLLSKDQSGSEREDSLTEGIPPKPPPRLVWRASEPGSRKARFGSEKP

[4] = biological target: Sodium/hydrogen exchanger 1 (Homo sapiens, UniProt P19634); assay: Inhibition of human NHE1 expressed in LAP1 cell assessed as intracellular pH recovery measured for 2 mins by CECF-AM dye based FLIPR assay
[5] = Drug metabolism in rat hepatic microsomes assessed as glucuronidation by LC-MS/MS method; type: ADME, Liver, Microsome
[6] = Drug metabolism in rat hepatic microsomes assessed as compound lability by LC-MS/MS method; type: ADME, Microsome; conditions: liver microsomes, read-out: Drug metabolism
[7] = Drug metabolism in guinea pig hepatic microsomes assessed as compound lability by LC-MS/MS method; type: ADME, Cavia porcellus, Microsome; conditions: liver microsomes, read-out: Drug metabolism
[8] = Drug metabolism in rabbit hepatic microsomes assessed as compound lability by LC-MS/MS method; type: ADME, Oryctolagus cuniculus, Microsome; conditions: liver microsomes, read-out: Drug metabolism
[9] = Drug metabolism in pig hepatic microsomes assessed as glucuronidation by LC-MS/MS method; type: ADME, Sus scrofa, Liver, Microsome
[10] = Inhibition of cat NHE3 expressed in LAP1 cell assessed as intracellular pH recovery measured for 2 mins by CECF-AM dye based FLIPR assay; conditions: Felis catus, LAP1, 2 min
[11] = Drug metabolism in dog hepatic microsomes assessed as glucuronidation by LC-MS/MS method; type: ADME, Canis lupus familiaris, Liver, Microsome
[12] = Drug metabolism in human hepatic microsomes assessed as compound lability in presence of CYP3A4 inhibitor ketoconazole by LC-MS/MS method; type: ADME, Microsome; conditions: liver microsomes, with ketoconazole (CYP3A4 inhibitor), concentration not stated, read-out: Drug metabolism
[13] = Drug metabolism in monkey hepatic microsomes assessed as glucuronidation by LC-MS/MS method; type: ADME, Macaca mulatta, Liver, Microsome; conditions: rhesus monkey
[14] = Drug metabolism in mouse hepatic microsomes assessed as compound lability by LC-MS/MS method; type: ADME, Microsome; conditions: liver microsomes, read-out: Drug metabolism
[15] = Drug metabolism in macaque hepatic microsomes assessed as compound lability by LC-MS/MS method; type: ADME, Macaca mulatta, Microsome; conditions: rhesus monkey, liver microsomes; read-out: Drug metabolism
[16] = Drug metabolism in human hepatic microsomes assessed as glucuronidation by LC-MS/MS method; type: ADME, Liver, Microsome
[17] = Drug metabolism in mini pig hepatic microsomes assessed as glucuronidation by LC-MS/MS method; type: ADME, Sus scrofa, Liver, Microsome
[18] = biological target: T2, Sodium/hydrogen exchanger isoform 3 (Sus scrofa, UniProt Q9XSD0); assay: Inhibition of pig NHE3 expressed in LAP1 cell assessed as intracellular pH recovery measured for 2 mins by CECF-AM dye based FLIPR assay
T2 sequence (Q9XSD0 whole entry): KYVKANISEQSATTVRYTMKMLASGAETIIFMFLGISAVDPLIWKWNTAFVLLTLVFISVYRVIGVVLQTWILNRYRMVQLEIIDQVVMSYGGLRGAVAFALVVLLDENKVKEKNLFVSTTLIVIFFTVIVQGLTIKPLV

[19] = biological target: T3, Sodium/hydrogen exchanger 5 (Homo sapiens, UniProt Q14940); assay: Inhibition of human NHE5 expressed in LAP1 cell assessed as intracellular pH recovery measured for 2 mins by CECF-AM dye based FLIPR assay
T3 sequence (Q14940 whole entry): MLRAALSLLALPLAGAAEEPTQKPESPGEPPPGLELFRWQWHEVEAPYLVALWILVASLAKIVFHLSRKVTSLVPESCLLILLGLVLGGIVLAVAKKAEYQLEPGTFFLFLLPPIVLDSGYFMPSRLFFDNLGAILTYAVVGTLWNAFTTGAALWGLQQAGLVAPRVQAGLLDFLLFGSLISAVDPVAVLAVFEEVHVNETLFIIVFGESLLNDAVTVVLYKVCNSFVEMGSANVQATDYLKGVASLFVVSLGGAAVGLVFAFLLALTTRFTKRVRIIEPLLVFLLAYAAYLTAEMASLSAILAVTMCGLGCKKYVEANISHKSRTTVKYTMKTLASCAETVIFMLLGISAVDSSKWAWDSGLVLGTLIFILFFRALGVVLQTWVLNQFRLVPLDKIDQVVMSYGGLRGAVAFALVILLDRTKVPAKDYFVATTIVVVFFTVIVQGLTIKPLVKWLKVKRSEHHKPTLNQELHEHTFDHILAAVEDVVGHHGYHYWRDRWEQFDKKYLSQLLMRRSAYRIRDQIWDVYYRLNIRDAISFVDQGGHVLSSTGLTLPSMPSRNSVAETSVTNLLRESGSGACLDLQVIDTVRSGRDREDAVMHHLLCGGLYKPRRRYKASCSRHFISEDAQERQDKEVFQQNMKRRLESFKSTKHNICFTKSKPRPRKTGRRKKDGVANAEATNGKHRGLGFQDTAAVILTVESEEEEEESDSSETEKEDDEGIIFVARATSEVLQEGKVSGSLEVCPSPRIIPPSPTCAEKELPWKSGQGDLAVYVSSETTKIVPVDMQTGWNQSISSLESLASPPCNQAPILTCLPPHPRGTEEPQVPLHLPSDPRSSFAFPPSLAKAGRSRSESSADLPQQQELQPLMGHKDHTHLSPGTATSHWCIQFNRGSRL

Cytochrome P450 2C9 = Cytochrome P450 2C9 (Homo sapiens, UniProt P11712); assay: Inhibition of CYP2C9 in pooled human hepatic microsomes using diclofenac substrate in presence of NADPH; type: ADME, Liver
[20] = Drug metabolism in guinea pig hepatic microsomes assessed as glucuronidation by LC-MS/MS method; type: ADME, Cavia porcellus, Liver, Microsome
[21] = Drug metabolism in mouse hepatic microsomes assessed as glucuronidation by LC-MS/MS method; type: ADME, Liver, Microsome
Salmonella typhimurium = assay: Genotoxicity in Salmonella typhimurium at 300 ug/ml by AMES II test; type: toxicity, organism-based; conditions: salmonella enterica subsp. enterica serovar typhimurium
[22] = Clearance in human hepatocytes assessed per million cells at 5 uM by LC-MS/MS method; type: ADME, cell-based, Hepatocyte
[23] = biological target: Sodium/hydrogen exchanger 3 (Rattus norvegicus, UniProt P26433); assay: Inhibition of rat NHE3 expressed in LAP1 cell assessed as intracellular pH recovery measured for 2 mins by CECF-AM dye based FLIPR assay
[24] = Inhibition of GABA-gated chloride channel (unknown origin); design: species or system Homo sapiens
[25] = Drug metabolism in rabbit hepatic microsomes assessed as glucuronidation by LC-MS/MS method; type: ADME, Oryctolagus cuniculus, Liver, Microsome
[26] = Drug metabolism in hamster hepatic microsomes assessed as glucuronidation by LC-MS/MS method; type: ADME, Liver, Microsome; conditions: cricetinae
[27] = Drug metabolism in human hepatic microsomes assessed as compound lability by LC-MS/MS method; type: ADME, Microsome; conditions: liver microsomes, read-out: Drug metabolism
[28] = Toxicity in Xenopus laevis at 62.5 ug/ml by FETAX assay
[29] = Drug metabolism in hamster hepatic microsomes assessed as compound lability by LC-MS/MS method; type: ADME, Microsome; conditions: cricetinae, liver microsomes; read-out: Drug metabolism
Sus scrofa [30] = assay: Inhibition of upper airway collapsibility in urethane-chloralose anesthetized pig assessed as time duration for onset of action at 3 mg/kg, id after 4 hrs; type: functional
[31] = Plasma concentration in Sprague-Dawley rat at 10 mg/kg, po after 24 hrs administered as single dose by ESI-LC-MS/MS method; type: ADME, organism-based
[32] = Ratio of AUC in Sprague-Dawley rat at 100 mg/kg, po administered as single dose by ESI-LC-MS/MS method to AUC in Sprague-Dawley rat at 10 mg/kg, po administered as single dose by ESI-LC-MS/MS method; type: ADME, organism-based; conditions: in vivo
[33] = Half life in Sprague-Dawley rat at 10 mg/kg, po administered as single dose by ESI-LC-MS/MS method; type: ADME, organism-based; conditions: in vivo
Sus scrofa [34] = assay: Inhibition of upper airway collapsibility in urethane-chloralose anesthetized pig assessed as time duration for onset of action at 1 mg/kg, id after 4 hrs; type: functional
[35] = Ratio of Cmax in Sprague-Dawley rat at 100 mg/kg, po administered as single dose by ESI-LC-MS/MS method to Cmax in Sprague-Dawley rat at 10 mg/kg, po administered as single dose by ESI-LC-MS/MS method; type: ADME, organism-based; conditions: in vivo
[36] = Ratio of AUC in Sprague-Dawley rat at 300 mg/kg, po administered as single dose by ESI-LC-MS/MS method to AUC in Sprague-Dawley rat at 100 mg/kg, po administered as single dose by ESI-LC-MS/MS method; type: ADME, organism-based; conditions: in vivo
[37] = Lipophilicity, log P of the compound; type: physicochemical; conditions: octanol/water
[38] = Oral bioavailability in Sprague-Dawley rat at 10 mg/kg administered as single dose by ESI-LC-MS/MS method; type: ADME, organism-based; conditions: in vivo
[39] = Toxicity in anesthetized mongrel dog assessed as induction of major hemodynamic changes at 10 mg/kg, iv; type: organism-based, Canis lupus familiaris; conditions: in vivo
[40] = Solubility of the compound in aqueous buffer; type: physicochemical
[41] = Distribution coefficient, log D of the compound at pH 7.4; type: physicochemical; conditions: octanol/water
[42] = Stability of the compound; type: physicochemical
[43] = Tmax in Sprague-Dawley rat at 10 mg/kg, po administered as single dose by ESI-LC-MS/MS method; type: ADME, organism-based; conditions: in vivo
[44] = Oral bioavailability in urethane-chloralose anesthetized pig at 3 mg/kg, id; type: ADME, organism-based, Sus scrofa; conditions: in vivo
[45] = Toxicity in anesthetized mongrel dog assessed as induction of major electrophysiological changes at 10 mg/kg, iv; type: organism-based, Canis lupus familiaris; conditions: in vivo
[46] = Tmax in Duroc Landrace pig at 3 mg/kg, po administered as single dose by ESI-LC-MS/MS method; type: ADME, organism-based, Sus scrofa; conditions: in vivo
[47] = Half life in Duroc Landrace pig at 3 mg/kg, po administered as single dose by ESI-LC-MS/MS method; type: ADME, organism-based, Sus scrofa; conditions: in vivo
[48] = Oral bioavailability in Duroc Landrace pig at 3 mg/kg administered as single dose by ESI-LC-MS/MS method; type: ADME, organism-based, Sus scrofa; conditions: in vivo
[49] = Cmax in Sprague-Dawley rat at 10 mg/kg, po administered as single dose by ESI-LC-MS/MS method; type: ADME, organism-based; design: dose 10 mg/kg, route oral; conditions: in vivo

Sodium/hydrogen exchanger 1, sequence (P19634 whole entry): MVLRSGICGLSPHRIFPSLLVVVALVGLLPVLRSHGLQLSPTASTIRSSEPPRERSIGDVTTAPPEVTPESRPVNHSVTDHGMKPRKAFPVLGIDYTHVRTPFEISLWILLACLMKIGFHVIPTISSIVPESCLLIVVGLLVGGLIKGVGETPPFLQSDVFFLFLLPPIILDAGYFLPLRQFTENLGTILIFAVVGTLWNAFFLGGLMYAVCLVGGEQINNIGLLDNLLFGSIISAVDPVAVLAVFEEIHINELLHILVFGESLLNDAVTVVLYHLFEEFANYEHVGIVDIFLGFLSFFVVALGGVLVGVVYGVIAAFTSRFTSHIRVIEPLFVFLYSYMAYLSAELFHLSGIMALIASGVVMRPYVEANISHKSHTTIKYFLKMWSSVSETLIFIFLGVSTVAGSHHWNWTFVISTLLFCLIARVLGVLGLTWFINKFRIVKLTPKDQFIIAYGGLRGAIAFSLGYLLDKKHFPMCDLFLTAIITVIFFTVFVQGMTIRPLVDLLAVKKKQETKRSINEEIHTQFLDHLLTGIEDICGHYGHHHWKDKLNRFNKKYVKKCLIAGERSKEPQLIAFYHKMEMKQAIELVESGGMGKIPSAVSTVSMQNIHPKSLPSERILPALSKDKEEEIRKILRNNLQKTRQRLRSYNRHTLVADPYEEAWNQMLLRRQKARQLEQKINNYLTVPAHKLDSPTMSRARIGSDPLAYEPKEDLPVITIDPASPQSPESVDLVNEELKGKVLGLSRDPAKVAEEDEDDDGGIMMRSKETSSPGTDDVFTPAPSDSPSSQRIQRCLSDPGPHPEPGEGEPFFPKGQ
Cytochrome P450 2C9, sequence (P11712 whole entry): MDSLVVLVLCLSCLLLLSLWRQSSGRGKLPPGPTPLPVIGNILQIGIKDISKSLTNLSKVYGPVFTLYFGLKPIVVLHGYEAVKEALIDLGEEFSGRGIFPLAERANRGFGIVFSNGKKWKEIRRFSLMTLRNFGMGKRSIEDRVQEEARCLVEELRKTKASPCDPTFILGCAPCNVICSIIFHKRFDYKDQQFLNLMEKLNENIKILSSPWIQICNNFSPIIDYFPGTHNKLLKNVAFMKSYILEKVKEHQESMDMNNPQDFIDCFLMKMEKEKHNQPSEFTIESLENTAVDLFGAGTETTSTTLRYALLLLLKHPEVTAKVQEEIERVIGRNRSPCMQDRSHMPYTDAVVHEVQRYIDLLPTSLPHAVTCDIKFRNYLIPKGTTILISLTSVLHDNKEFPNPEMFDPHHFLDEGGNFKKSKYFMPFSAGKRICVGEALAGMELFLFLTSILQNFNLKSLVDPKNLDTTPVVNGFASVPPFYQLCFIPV
Sodium/hydrogen exchanger 3, sequence (P26433 whole entry): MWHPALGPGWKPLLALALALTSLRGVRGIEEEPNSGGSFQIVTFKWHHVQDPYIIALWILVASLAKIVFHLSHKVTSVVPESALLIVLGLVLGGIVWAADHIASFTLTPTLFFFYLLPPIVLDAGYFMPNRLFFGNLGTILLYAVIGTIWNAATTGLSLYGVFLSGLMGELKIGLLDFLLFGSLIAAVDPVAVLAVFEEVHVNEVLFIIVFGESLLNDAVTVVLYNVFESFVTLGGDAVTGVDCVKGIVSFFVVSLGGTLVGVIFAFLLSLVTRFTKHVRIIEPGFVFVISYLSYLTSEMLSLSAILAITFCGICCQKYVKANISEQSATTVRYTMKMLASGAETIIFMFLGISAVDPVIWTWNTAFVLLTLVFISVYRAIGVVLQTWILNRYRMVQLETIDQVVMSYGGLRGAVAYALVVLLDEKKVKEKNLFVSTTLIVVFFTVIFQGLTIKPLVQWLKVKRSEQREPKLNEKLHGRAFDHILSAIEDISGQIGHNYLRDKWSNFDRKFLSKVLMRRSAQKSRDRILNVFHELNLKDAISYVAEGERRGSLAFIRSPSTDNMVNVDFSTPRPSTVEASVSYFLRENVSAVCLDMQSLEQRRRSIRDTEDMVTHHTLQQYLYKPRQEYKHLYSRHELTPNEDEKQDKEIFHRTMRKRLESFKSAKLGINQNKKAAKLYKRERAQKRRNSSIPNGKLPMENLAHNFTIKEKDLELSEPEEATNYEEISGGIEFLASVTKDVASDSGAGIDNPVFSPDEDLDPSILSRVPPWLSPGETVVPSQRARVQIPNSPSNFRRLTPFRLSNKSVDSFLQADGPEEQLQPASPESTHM

pIC50 [1]: 5.18
metabolised [2]: 25%
pIC50 [3]: < 4.00
pIC50 [4]: < 4.00
Drug metabolism [5]: Metabolite_Notdetected
metabolised [6]: 25%
metabolised [7]: 25%
metabolised [8]: 25%
Drug metabolism [9]: Metabolite_Detected
pIC50 [10]: 8.21
Drug metabolism [11]: Metabolite_Notdetected
metabolised [12]: 5%
Drug metabolism [13]: Metabolite_Detected
metabolised [14]: 25%
metabolised [15]: > 60%
Drug metabolism [16]: Metabolite_Notdetected
Drug metabolism [17]: Metabolite_Detected
pIC50 [18]: 8.11
pIC50 [19]: 6.54
pIC50 (Cytochrome P450 2C9): 6.05
Drug metabolism [20]: Metabolite_Notdetected
Drug metabolism [21]: Metabolite_Notdetected
CLH [22]: 0.12 mL/h
pIC50 [23]: 7.99
pIC50 [24]: 4.92
Drug metabolism [25]: Metabolite_Notdetected
Drug metabolism [26]: Metabolite_Notdetected
metabolised [27]: 25%
metabolised [29]: > 60%
Compound: Cc1nnc(C)n1-c1ccc(O[C@H]2c3cc(Cl)cc(Cl)c3C[C@@H]2N2CC[C@@H](O)C2)c(F)c1.Cl
Activity (Salmonella typhimurium): Non-Toxic
Activity [28]: Non-Toxic

concentration at 24 h [31]: < 1 ng/mL
Ratio [32]: 2.3
half-life [33]: 2.7 h
Ratio [35]: 2.3
Ratio [36]: 1.1
logP [37]: 2.05
bioavailability [38]: 42%
solubility [40]: Soluble
logD [41]: 2.06
Stability [42]: Stable
Tmax [43]: 1 h
bioavailability [44]: 61%
Tmax [46]: 0.5 h
half-life [47]: 18 h
bioavailability [48]: 18 to 98%
Cmax [49]: 570 ng/mL
Compound: Cc1nnc(C)n1-c1ccc(O[C@H]2c3cc(Cl)cc(Cl)c3C[C@@H]2N2CC[C@@H](O)C2)c(F)c1.O=P(O)(O)O
Time (Sus scrofa [30]): 1.5 h
Time (Sus scrofa [34]): 1 h
Activity [39]: Non-Toxic
Activity [45]: Non-Toxic
